Laboratory results from patent US8283322B2, “Formulations for nonsurgical exogenous crosslink therapy” (Orthopeutics, LP, priority 2008, dated 2012).
“Also recorded” adds a separate entry of the source.

Key:
[1] = tested on: homogenized annulus tissue; test: Crosslinking of annulus tissue quantified by hydroxyproline release upon collagenase digestion; conditions: for pH: optimized pH for crosslinking; for pH dependence of crosslinking: sub-saturating crosslinker, pH 4-9 with a different buffer at each pH (FIG. 2, FIG. 3); for effect of buffer (EPPS vs Tris) on crosslinking: 100 mM EPPS or 100 mM Tris, GP at pH 9; for concentration at which crosslinking was complete / a plateau was reached: FIG. 1, 1 hr (MG), 6 hrs (DT and LT); for effect of phosphate on crosslinking: Tris buffer pH 8, increasing concentrations of sodium phosphate
Method: (§1) Increasing concentrations of protein crosslinkers were added to homogenized annulus tissue and incubated for either 1 hr (EDC, GP, MG, PA and GA), 2 hrs (TG) or 6 hrs (DT and LT). Crosslinking was quantified by determining the amount of hydroxyproline (HYP) released from the tissue by collagenase digestion.
(§2) Homogenized annulus tissue was treated with sub-saturating concentrations of various crosslinkers at varying pH and incubated for either 1 hr (EDC, GP, MG, PA and GA), 2 hrs (TG) or 6 hrs (LT). Crosslinking was quantified by determining the amount of hydroxyproline (HYP) released from the tissue by collagenase digestion.
(§3) In order to determine the effective concentration range for various crosslinking reagents we incubated samples of annulus tissue in increasing concentrations of either genipin (GP), methylglyoxal (MG), proanthrocyanidin (PA), L-threose (LT), D-threose (DT), dimethylaminopropyl) carbodiimide hydrochloride (EDC) or transglutaminase (TG). Crosslinking efficiency was measured indirectly by monitoring the release of peptides containing hydroxyproline upon subsequent digestion with collagenase. Glutaraldehyde (GA), a commonly used, but highly toxic protein crosslinker was used as a positive control.
(§4) To test this hypothesis, the inventors subjected calf annulus fibrosus tissue to crosslinking with sub-saturating levels of our reagents at varying pH. In order to maintain optimal buffering capacity at each pH, different buffers were selected for each point.

[2] = at 20° C.; cited from earlier work
[3] = tested on: homogenized annulus tissue; conditions: bovine
Method: as §1, §2, §3, §4

[4] = in water; proposed values; cited from earlier work
[5] = saturating crosslinker concentration, Table 5
[6] = sub-saturating MG, 100 mM MOPS pH 7

Row | T1/2 [3] | Molecule | pH ([1]; Table 5) | [Saturating] [1, 5] | pH dependence of crosslinking [1] | concentration at which crosslinking was complete / a plateau was reached [1] | other results
1 |  | CCN=C=NCCCN(C)C.Cl [EDC, 1-ethyl-3-[3-dimethylaminopropyl]carbodiimide hydrochloride] | 6 | 2.5 to 5 mM | required a relatively narrow pH range |  | 
2 |  | tris(hydroxymethyl)aminomethane |  |  |  |  | pKa [2]: 8.3
3 | 150 min | O=C[C@H](O)[C@@H](O)CO [L-Threose, L-threose] | 8-9 | 50 mM | function better in disc tissue at the higher pH levels | approximately 50 mM | max solubility [4]: comparable to MG; effect of buffer (EPPS vs Tris) on crosslinking [1]: did not see any difference
4 | <5 min | proanthrocyanidin | 5-9 | 0.1% | relatively insensitive to pH |  | effect of buffer (EPPS vs Tris) on crosslinking [1]: did not see any difference; effect of phosphate on crosslinking [1]: did not have any substantial
5 | <5 min | O=CCCCC=O [Glutaraldehyde, reference compound] | 8-9 | 1 to 2 mM |  |  | 
6 |  | O=C[C@@H](O)[C@H](O)CO [D-Threose, D-threose] |  | 50 mM |  | approximately 50 mM | 
7 |  | transglutaminase (protein, UniProt P21980 2-687, looked up) Protein-glutamine …: AEELVLERCDLELETNGRDHHTADLCREKLVVRRGQPFWLTLHFEGRNYEASVDSLTFSVVTGPAPSQEAGTKARFPLRDAVEEGDWTATVVDQQDCTLSLQLTTPANAPIGLYRLSLEASTGYQGSSFVLGHFILLFNAWCPADAVYLDSEEERQEYVLTQQGFIYQGSAKFIKNIPWNFGQFEDGILDICLILLDVNPKFLKNAGRDCSRRSSPVYVGRVVSGMVNCNDDQGVLLGRWDNNYGDGVSPMSWIGSVDILRRWKNHGCQRVKYGQCWVFAAVACTVLRCLGIPTRVVTNYNSAHDQNSNLLIEYFRNEFGEIQGDKSEMIWNFHCWVESWMTRPDLQPGYEGWQALDPTPQEKSEGTYCCGPVPVRAIKEGDLSTKYDAPFVFAEVNADVVDWIQQDDGSVHKSINRSLIVGLKISTKSVGRDEREDITHTYKYPEGSSEEREAFTRANHLNKLAEKEETGMAMRIRVGQSMNMGSDFDVFAHITNNTAEEYVCRLLLCARTVSYNGILGPECGTKYLLNLNLEPFSEKSVPLCILYEKYRDCLTESNLIKVRALLVEPVINSYLLAERDLYLENPEIKIRILGEPKQKRKLVAEVSLQNPLPVALEGCTFTVEGAGLTEEQKTVEIPDPVEAGEEVKVRMDLLPLHMGLHKLVVNFESDKLKAVKGFRNVIIGPA | 7-8 |  | required a relatively narrow pH range |  | [Saturating] ([1]; 2 hrs incubation, highest concentration tested 2 U/ml): >2 U/ml; [Saturating] ([1]; 2 hrs incubation, highest concentration tested 2 U/ml, listed as TG): > 2 U/ml

Row | Molecule | T1/2 [3] | pH ([1]; Table 5) | [Saturating] [1, 5] | pH dependence of crosslinking [1] | concentration at which crosslinking was complete / a plateau was reached [1] | other results
8 | CC(=O)C=O [Methylglyoxal, methylglyoxal] | 14 to 20 min | 8-9 |  |  | 50 mM | max solubility [4]: about 6 M; enhancement of crosslinking by phosphate ([1]; 100 mM EPPS pH 8, 100 mM potassium phosphate, p=0.1): approximately 3 fold; effect of phosphate on crosslinking [1]: enhance disc tissue crosslinking in a dose-dependent manner; [Saturating] ([1]; at pH 7): 30 to 50 mM; [Saturating] ([1]; at pH 8 (100 mM EPPS buffer), listed as MG): 10 mM; borohydride concentration at which the crosslinking reaction was enhanced [1, 6]: 1 to 5 mM; effect of 10 mM borohydride on crosslinking [1, 6]: inhibitory; borohydride concentration at which enhancement was observed ([1]; sub-saturating MG, EPPS buffer pH 8.0): below 1.5 mM; activity in EPPS when compared to Tris ([1]; sub-saturating MG, pH 8, 100 mM buffer, p<0.0001, n=10): ~2 fold; pH dependence of crosslinking ([1]; listed as MG): function better in disc tissue at the higher pH levels; also recorded: equally efficient at pH 8 and 9; also recorded: marked increase in its crosslinking ability at pH 8 compared to pH 7
